# Experimental data: patent US9434743B2, “Indazole derivatives” (TAKEDA PHARMACEUTICAL COMPANY LIMITED, priority 2012, dated 2016)
# Key:
# human MetAP2 enzyme [1] = molecular target: T1, human MetAP2 enzyme (Homo sapiens, UniProt P50579); test: MetAP2 enzyme assay, enzyme complexed with cobalt ions; conditions: MetAP2 Co pIC50, MetAP2 enzyme complexed with cobalt ions; Met-AMC substrate at Km
# human MetAP2 enzyme [2] = molecular target: T1, human MetAP2 enzyme; test: MetAP2 enzyme assay, enzyme complexed with manganese ions; conditions: MetAP2 Mn pIC50, MetAP2 enzyme complexed with manganese ions; Met-AMC substrate at Km
# Procedure: DNA encoding the full-length sequence of human MetAP2 enzyme is amplified by PCR and cloned into a pFastBac expression vector (Invitrogen). Recombinant baculovirus incorporating the MetAP2 construct is generated by transposition using the Bac-to-Bac system (Invitrogen). The expression of recombinant protein is carried out by infection of Spodoptera frugiperda Sf9 cells (Invitrogen) in 5 L Wave Bioreactors (Wave Biotech). Recombinant protein is isolated from cellular extracts by binding to an SP Hitrap Fast Flow or SP Sepharose (Sigma) column, and the protein is eluted using a NaCl gradient. Partially purified extracts of MetAP2 are further purified by an AKTA FPLC over a Superdex-200 column (GE). The purity of MetAP2 protein is determined on denaturing SDS-PAGE gel.
# The results for each well are expressed as percent inhibition and calculated using the equation:
# T1 sequence (P50579 whole entry): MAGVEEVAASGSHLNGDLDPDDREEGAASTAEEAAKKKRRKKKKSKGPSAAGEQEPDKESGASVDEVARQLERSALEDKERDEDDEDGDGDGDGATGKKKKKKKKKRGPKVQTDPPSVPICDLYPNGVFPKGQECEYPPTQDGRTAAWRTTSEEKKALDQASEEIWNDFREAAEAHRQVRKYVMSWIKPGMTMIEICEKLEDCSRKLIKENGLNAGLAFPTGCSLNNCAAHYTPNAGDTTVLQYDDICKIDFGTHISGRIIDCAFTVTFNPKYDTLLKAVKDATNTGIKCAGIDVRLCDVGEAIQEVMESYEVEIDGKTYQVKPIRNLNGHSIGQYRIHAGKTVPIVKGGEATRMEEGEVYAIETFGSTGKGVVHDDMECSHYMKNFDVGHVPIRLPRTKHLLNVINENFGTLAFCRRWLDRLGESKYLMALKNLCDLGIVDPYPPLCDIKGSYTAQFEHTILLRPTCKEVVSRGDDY
SMILES,IC50 (human MetAP2 enzyme [1]),IC50 (human MetAP2 enzyme [2])
"COc1ccc(C(N)=O)cc1-c1cc(C(F)(F)F)cc2[nH]ncc12 [Example 273, 4-methoxy-3-(6-(trifluoromethyl)-1H-indazol-4-yl)benzamide]",0.02 µM,0.00398 µM
"Cc1nn(CC(N)=O)cc1-c1cc(C(F)(F)F)cc2[nH]ncc12 [Example 274, 2-(3-methyl-4-(6-(trifluoromethyl)-1H-indazol-4-yl)-1H-pyrazol-1-yl)acetamide]",0.0631 µM,0.00398 µM
"FC(F)(F)c1cc(-c2cnc3ccnn3c2)c2cn[nH]c2c1 [Example 275, 6-(6-(trifluoromethyl)-1H-indazol-4-yl)pyrazolo[1,5-a]pyrimidine]",0.126 µM,0.00501 µM
"NC(=O)c1ccc2ncc(-c3cc(C(F)(F)F)cc4[nH]ncc34)n2n1 [Example 276, 3-(6-(trifluoromethyl)-1H-indazol-4-yl)imidazo[1,2-b]pyridazine-6-carboxamide]",0.398 µM,0.0398 µM
"Cc1nn(CC(=O)N2CCOCC2)cc1-c1cc(C(F)(F)F)cc2[nH]ncc12 [Example 277, 2-(3-methyl-4-(6-(trifluoromethyl)-1H-indazol-4-yl)-1H-pyrazol-1-yl)-1-morpholinoethanone]",0.0631 µM,0.00501 µM
"Cn1cc(-c2cc(C(F)(F)F)cc3[nH]ncc23)c(=O)[nH]c1=O [Example 278, 1-methyl-5-(6-(trifluoromethyl)-1H-indazol-4-yl)pyrimidine-2,4(1H,3H)-dione]",0.631 µM,0.01 µM
"Cc1nn(CC(=O)NCCO)cc1-c1cc(C(F)(F)F)cc2[nH]ncc12 [Example 279, N-(2-hydroxyethyl)-2-(3-methyl-4-(6-(trifluoromethyl)-1H-indazol-4-yl)-1H-pyrazol-1-yl)acetamide]",0.0501 µM,0.00501 µM
"CN(C)CCOc1ccc(-c2cc(C(F)(F)F)cc3[nH]ncc23)cc1 [Example 280, N,N-dimethyl-2-(4-(6-(trifluoromethyl)-1H-indazol-4-yl)phenoxy)ethanamine]",0.0316 µM,0.00631 µM
"FC(F)(F)c1cc(-c2ccc(OCCN3CCOCC3)cc2)c2cn[nH]c2c1 [Example 281, 4-(2-(4-(6-(trifluoromethyl)-1H-indazol-4-yl)phenoxy)ethyl)morpholine]",0.0631 µM,0.00794 µM
"CN1CCN(C(=O)c2cc(-c3cc(C(F)(F)F)cc4[nH]ncc34)cnc2N)CC1 [Example 282, (2-amino-5-(6-(trifluoromethyl)-1H-indazol-4-yl)pyridin-3-yl)(4-methylpiperazin-1-yl)methanone]",0.0501 µM,0.00631 µM
"NC(=O)c1cc(-c2cc(C(F)(F)F)cc3[nH]ncc23)ccn1 [Example 283, 4-(6-(trifluoromethyl)-1H-indazol-4-yl)picolinamide]",0.0631 µM,0.00398 µM
"CN1CCN(C(=O)c2cc(-c3cc(C(F)(F)F)cc4[nH]ncc34)ccn2)CC1 [Example 284, (4-methylpiperazin-1-yl)(4-(6-(trifluoromethyl)-1H-indazol-4-yl)pyridin-2-yl)methanone]",0.0794 µM,0.00794 µM
"COc1ncc(-c2cc(C(F)(F)F)cc3[nH]ncc23)cc1C(=O)NCCO [Example 285, N-(2-hydroxyethyl)-2-methoxy-5-(6-(trifluoromethyl)-1H-indazol-4-yl)nicotinamide]",0.0501 µM,0.00398 µM
"O=C(NCCO)c1ncc(-c2cc(C(F)(F)F)cc3[nH]ncc23)cn1 [Example 286, N-(2-hydroxyethyl)-5-(6-(trifluoromethyl)-1H-indazol-4-yl)pyrimidine-2-carboxamide]",0.2 µM,0.00794 µM
"CN1CCN(C(=O)c2cncc(-c3cc(C(F)(F)F)cc4[nH]ncc34)c2)CC1 [Example 287, (4-methylpiperazin-1-yl)(5-(6-(trifluoromethyl)-1H-indazol-4-yl)pyridin-3-yl)methanone]",0.0631 µM,0.00398 µM

# Results, then the compound that gave them:
IC50 (human MetAP2 enzyme [1]),IC50 (human MetAP2 enzyme [2]),SMILES
0.0316 µM,0.00501 µM,"COc1ncc(-c2cc(C(F)(F)F)cc3[nH]ncc23)cc1C(=O)N1CCN(C)CC1 [Example 288, (2-methoxy-5-(6-(trifluoromethyl)-1H-indazol-4-yl)pyridin-3-yl)(4-methylpiperazin-1-yl)methanone]"
0.1 µM,0.00631 µM,"CN1CCN(C(=O)c2cc(-c3cc(C(F)(F)F)cc4[nH]ncc34)cnc2F)CC1 [Example 289, (2-fluoro-5-(6-(trifluoromethyl)-1H-indazol-4-yl)pyridin-3-yl)(4-methylpiperazin-1-yl)methanone]"
0.251 µM,0.00794 µM,"O=C(NCCO)c1cncc(-c2cc(C(F)(F)F)cc3[nH]ncc23)c1 [Example 290, N-(2-hydroxyethyl)-5-(6-(trifluoromethyl)-1H-indazol-4-yl)nicotinamide]"
0.0631 µM,0.01 µM,"COc1ncc(-c2cc(C(F)(F)F)cc3[nH]ncc23)c2cc[nH]c12 [Example 291, 4-(7-methoxy-1H-pyrrolo[2,3-c]pyridin-4-yl)-6-(trifluoromethyl)-1H-indazole]"
0.0398 µM,0.00631 µM,"Cc1ncc(-c2cc(C(F)(F)F)cc3[nH]ncc23)c2cc[nH]c12 [Example 292, 4-(7-methyl-1H-pyrrolo[2,3-c]pyridin-4-yl)-6-(trifluoromethyl)-1H-indazole]"
0.1 µM,0.00631 µM,"COCCNc1ncc(-c2cc(C(F)(F)F)cc3[nH]ncc23)cn1 [Example 293, N-(2-methoxyethyl)-5-(6-(trifluoromethyl)-1H-indazol-4-yl)pyrimidin-2-amine]"
1.58 µM,0.0316 µM,"O=C(c1ncc(-c2cc(C(F)(F)F)cc3[nH]ncc23)cn1)N1CCOCC1 [Example 294, morpholino(5-(6-(trifluoromethyl)-1H-indazol-4-yl)pyrimidin-2-yl)methanone]"
0.2 µM,0.00631 µM,"NC(=O)c1ncc(-c2cc(C(F)(F)F)cc3[nH]ncc23)cn1 [Example 295, 5-(6-(trifluoromethyl)-1H-indazol-4-yl)pyrimidine-2-carboxamide]"
0.02 µM,0.00631 µM,"CN1C(=O)COc2ccc(-c3cc(C(F)(F)F)cc4[nH]ncc34)cc21 [Example 296, 4-methyl-6-(6-(trifluoromethyl)-1H-indazol-4-yl)-2H-benzo[b][1,4]oxazin-3(4H)-one]"
0.158 µM,0.00631 µM,"CN1CCN(C(=O)c2c[nH]c(=O)c(-c3cc(C(F)(F)F)cc4[nH]ncc34)c2)CC1 [Example 297, 5-(4-methylpiperazine-1-carbonyl)-3-(6-(trifluoromethyl)-1H-indazol-4-yl)pyridin-2(1H)-one]"
0.398 µM,0.01 µM,"O=C(c1c[nH]c(=O)c(-c2cc(C(F)(F)F)cc3[nH]ncc23)c1)N1CCOCC1 [Example 298, 5-(morpholine-4-carbonyl)-3-(6-(trifluoromethyl)-1H-indazol-4-yl)pyridin-2(1H)-one]"
0.398 µM,0.00794 µM,"O=C(NCCO)c1c[nH]c(=O)c(-c2cc(C(F)(F)F)cc3[nH]ncc23)c1 [Example 299, N-(2-hydroxyethyl)-6-oxo-5-(6-(trifluoromethyl)-1H-indazol-4-yl)-1,6-dihydropyridine-3-carboxamide]"
0.398 µM,0.0126 µM,"Cn1cc(-c2cc(C(F)(F)F)cc3[nH]ncc23)c(=O)n(CC(N)=O)c1=O [Example 300, 2-(3-methyl-2,6-dioxo-5-(6-(trifluoromethyl)-1H-indazol-4-yl)-2,3-dihydropyrimidin-1(6H)-yl)acetamide]"
1 µM,0.0158 µM,"CNC(=O)Cn1c(=O)c(-c2cc(C(F)(F)F)cc3[nH]ncc23)cn(C)c1=O [Example 301, N-methyl-2-(3-methyl-2,6-dioxo-5-(6-(trifluoromethyl)-1H-indazol-4-yl)-2,3-dihydropyrimidin-1(6H)-yl)acetamide]"
0.501 µM,0.00631 µM,"CCNC(=O)Cn1c(=O)c(-c2cc(C(F)(F)F)cc3[nH]ncc23)cn(C)c1=O [Example 302, N-ethyl-2-(3-methyl-2,6-dioxo-5-(6-(trifluoromethyl)-1H-indazol-4-yl)-2,3-dihydropyrimidin-1(6H)-yl)acetamide]"
1 µM,0.0126 µM,"Cn1cc(-c2cc(C(F)(F)F)cc3[nH]ncc23)c(=O)n(CCO)c1=O [Example 303, 3-(2-hydroxyethyl)-1-methyl-5-(6-(trifluoromethyl)-1H-indazol-4-yl)pyrimidine-2,4(1H,3H)-dione]"
0.0158 µM,0.00631 µM,"COc1cc(C(N)=O)ccc1-c1cc(C(F)(F)F)cc2[nH]ncc12 [Example 306, 3-methoxy-4-(6-(trifluoromethyl)-1H-indazol-4-yl)benzamide]"
0.0794 µM,0.00631 µM,"O=C(NCCO)c1cc(-c2cc(C(F)(F)F)cc3[nH]ncc23)ccn1 [Example 308, N-(2-hydroxyethyl)-4-(6-(trifluoromethyl)-1H-indazol-4-yl)picolinamide]"
1 µM,0.02 µM,"CN(C)C(=O)Cn1c(=O)c(-c2cc(C(F)(F)F)cc3[nH]ncc23)cn(C)c1=O [Example 309, N,N-dimethyl-2-(3-methyl-2,6-dioxo-5-(6-(trifluoromethyl)-1H-indazol-4-yl)-2,3-dihydropyrimidin-1(6H)-yl)acetamide]"
1 µM,0.02 µM,"Cn1cc(-c2cc(C(F)(F)F)cc3[nH]ncc23)c(=O)n(CC(=O)N2CCOCC2)c1=O [Example 310, 1-methyl-3-(2-morpholino-2-oxoethyl)-5-(6-(trifluoromethyl)-1H-indazol-4-yl)pyrimidine-2,4(1H,3H)-dione]"
1 µM,0.0631 µM,"Cn1cc(-c2cc(C(F)(F)F)cc3[nH]ncc23)c(=O)n(Cc2ccc(F)cc2)c1=O [Example 311, 3-(4-fluorobenzyl)-1-methyl-5-(6-(trifluoromethyl)-1H-indazol-4-yl)pyrimidine-2,4(1H,3H)-dione]"
